In ChEMBL document CHEMBL3352751, “7,9-Diaryl-1,6,8-trioxaspiro[4.5]dec-3-en-2-ones: readily accessible and highly potent anticancer compounds” (Bioorg Med Chem Lett, 2014):
Converted amounts (≈) assume the structure as drawn.

Tests used:
[1] = Anticancer activity against human NMC-797 cells after 48 hrs by viability assay; type: functional, cell-based; conditions: NMC-797, 48 h
[2] = Anticancer activity against human MJ cells after 48 hrs by viability assay; type: functional, cell-based
Escherichia coli = assay: Antimicrobial activity against Escherichia coli K-12 ATCC 25404 assessed as growth inhibition after 20 hrs by two-fold microdilution method; type: functional, organism-based; conditions: K-12 ATCC 25404, 20 h
Bacillus subtilis = assay: Antimicrobial activity against Bacillus subtilis Marburg ATCC 6051 assessed as growth inhibition after 20 hrs by two-fold microdilution method; type: functional, organism-based; conditions: Marburg ATCC 6051, 20 h
[3] = test system: Mycolicibacterium smegmatis; assay: Antimicrobial activity against Mycobacterium smegmatis strain MC2 155 ATCC 700084 assessed as growth inhibition after 20 hrs by two-fold microdilution method; type: functional, organism-based; conditions: MC2 155 ATCC 700084, 20 h

## O=C1C=C[C@]2(C[C@@H](c3cccc([N+](=O)[O-])c3)O[C@@H](c3cccc([N+](=O)[O-])c3)O2)O1 (racemic)
[1]
  IC50: 47 nM
[2]
  IC50: 170 nM
Escherichia coli
  IC50: > 500000 nM
  MIC95: > 500 µM
Bacillus subtilis
  IC50: 216000 nM
  MIC95: 425 µM (≈ 169 µg/mL)
[3]
  IC50: > 500000 nM
  MIC95: > 500 µM

## CC1[C@@H](c2cccc([N+](=O)[O-])c2)O[C@@H](c2cccc([N+](=O)[O-])c2)O[C@@]12C=CC(=O)O2 (mixture of isomers)
[1]
  IC50: 12000 nM
[2]
  IC50: > 20000 nM

## O=C1C=C[C@]2(C[C@@H](c3cccc([N+](=O)[O-])c3)O[C@@H](c3ccccc3)O2)O1 (racemic)
[1]
  IC50: 160 nM
[2]
  IC50: 370 nM

## O=C1C=C[C@]2(C[C@@H](c3coc([N+](=O)[O-])c3)O[C@@H](c3coc([N+](=O)[O-])c3)O2)O1 (racemic)
[1]
  IC50: 340 nM
[2]
  IC50: 820 nM

## O=C1C=C[C@]2(C[C@@H](c3ccc([N+](=O)[O-])cc3)O[C@@H](c3ccc([N+](=O)[O-])cc3)O2)O1 (racemic)
[1]
  IC50: 26 nM
[2]
  IC50: 190 nM

## O=C1C=C[C@]2(C[C@@H](c3cccc(C(F)(F)F)c3)O[C@@H](c3cccc(C(F)(F)F)c3)O2)O1 (racemic)
[1]
  IC50: 30 nM
[2]
  IC50: 190 nM

## O=C1C=C[C@]2(C[C@@H](c3cccc(Cl)c3)O[C@@H](c3cccc(Cl)c3)O2)O1 (racemic)
[1]
  IC50: 82 nM
[2]
  IC50: 260 nM
Escherichia coli
  IC50: > 500000 nM
  MIC95: > 500 µM
Bacillus subtilis
  IC50: 408000 nM
  MIC95: > 500 µM
[3]
  IC50: > 500000 nM
  MIC95: > 500 µM

## O=C1C=C[C@]2(C[C@@H](c3ccccc3)O[C@@H](c3cccc([N+](=O)[O-])c3)O2)O1 (racemic)
[1]
  IC50: 120 nM
[2]
  IC50: 340 nM

## O=C1C=C[C@]2(C[C@@H](c3c(F)c(F)c(F)c(F)c3F)O[C@@H](c3c(F)c(F)c(F)c(F)c3F)O2)O1 (racemic)
[1]
  IC50: 570 nM
[2]
  IC50: 2000 nM

## O=C1C=C[C@]2(CCOCO2)O1 (racemic)
[1]
  IC50: 8600 nM
[2]
  IC50: > 20000 nM

## O=C1C=C[C@]2(C[C@@H](c3ccccc3[N+](=O)[O-])O[C@@H](c3ccccc3[N+](=O)[O-])O2)O1 (racemic)
[1]
  IC50: 64 nM
[2]
  IC50: 170 nM

## O=C1C=C[C@]2(C[C@@H](c3ccccc3)O[C@@H](c3ccccc3)O2)O1 (racemic)
[1]
  IC50: 900 nM
[2]
  IC50: 1700 nM
Escherichia coli
  IC50: > 500000 nM
  MIC95: > 500 µM
Bacillus subtilis
  IC50: 224000 nM
  MIC95: > 500 µM
[3]
  IC50: > 500000 nM
  MIC95: > 500 µM

## O=C1C=C[C@]2(C[C@@H](c3ccc4ccccc4c3[N+](=O)[O-])O[C@@H](c3ccc4ccccc4c3[N+](=O)[O-])O2)O1 (racemic)
[1]
  IC50: 7600 nM
[2]
  IC50: > 20000 nM

## O=C1CC[C@]2(C[C@@H](c3cccc(C(F)(F)F)c3)O[C@@H](c3cccc(C(F)(F)F)c3)O2)O1 (racemic)
[1]
  IC50: > 20000 nM
[2]
  IC50: > 20000 nM
